In ChEMBL document CHEMBL1147596, “Subtype selective NMDA receptor antagonists: evaluation of some novel alkynyl analogues” (Bioorg Med Chem Lett, 2004) one finds minimal effective dose, MED and IC50 data, which are given here for 32 compounds.

Test [1] concerns Rattus norvegicus. The test is described as follows: Minimum effective dose required to measure anti-parkinson's activity (In vivo) upon p.o. […] in rat. Particulars: po, read-out: MED. The test is classed as functional.
The subject of test [2] is Rattus norvegicus. The experiment in a line: In vivo minimum effective dose inhibition of neuropathic pain (formalin test) upon p.o. administration; Not active. The format is functional, organism-based.
For test [3], the system named is Rattus norvegicus. The experiment in a line: Minimum effective dose required to measure neuropathic pain (In vivo) by formalin test upon p.o. […] in rat. Particulars: po, read-out: MED. The test is classed as functional.
Test [4] relates to Rattus norvegicus. The experiment in a line: In vivo minimum effective dose for anti-Parkinsonian activity in 6-OHDA rat model upon p.o. administration; Not active. The format is functional.
A short description of test [5]: Binding affinity against NR1A/2B receptor using [3H]-ifenprodil radioligand in native rat brains; NA means not active.
Test [6] concerns the target Glutamate NMDA receptor; Grin1/Grin2b (Rattus norvegicus, UniProt P35439+Q00960). The experiment in a line: Binding affinity against NR1A/2B receptor in rat brains by [3H]ifenprodil displacement. The test is classed as tissue-based, Brain.

Activity calls are given as the source filed them. No cut-off for these calls is given here.

Sequence of Glutamate NMDA receptor; Grin1/Grin2b (Q00960 whole entry, other chains not shown): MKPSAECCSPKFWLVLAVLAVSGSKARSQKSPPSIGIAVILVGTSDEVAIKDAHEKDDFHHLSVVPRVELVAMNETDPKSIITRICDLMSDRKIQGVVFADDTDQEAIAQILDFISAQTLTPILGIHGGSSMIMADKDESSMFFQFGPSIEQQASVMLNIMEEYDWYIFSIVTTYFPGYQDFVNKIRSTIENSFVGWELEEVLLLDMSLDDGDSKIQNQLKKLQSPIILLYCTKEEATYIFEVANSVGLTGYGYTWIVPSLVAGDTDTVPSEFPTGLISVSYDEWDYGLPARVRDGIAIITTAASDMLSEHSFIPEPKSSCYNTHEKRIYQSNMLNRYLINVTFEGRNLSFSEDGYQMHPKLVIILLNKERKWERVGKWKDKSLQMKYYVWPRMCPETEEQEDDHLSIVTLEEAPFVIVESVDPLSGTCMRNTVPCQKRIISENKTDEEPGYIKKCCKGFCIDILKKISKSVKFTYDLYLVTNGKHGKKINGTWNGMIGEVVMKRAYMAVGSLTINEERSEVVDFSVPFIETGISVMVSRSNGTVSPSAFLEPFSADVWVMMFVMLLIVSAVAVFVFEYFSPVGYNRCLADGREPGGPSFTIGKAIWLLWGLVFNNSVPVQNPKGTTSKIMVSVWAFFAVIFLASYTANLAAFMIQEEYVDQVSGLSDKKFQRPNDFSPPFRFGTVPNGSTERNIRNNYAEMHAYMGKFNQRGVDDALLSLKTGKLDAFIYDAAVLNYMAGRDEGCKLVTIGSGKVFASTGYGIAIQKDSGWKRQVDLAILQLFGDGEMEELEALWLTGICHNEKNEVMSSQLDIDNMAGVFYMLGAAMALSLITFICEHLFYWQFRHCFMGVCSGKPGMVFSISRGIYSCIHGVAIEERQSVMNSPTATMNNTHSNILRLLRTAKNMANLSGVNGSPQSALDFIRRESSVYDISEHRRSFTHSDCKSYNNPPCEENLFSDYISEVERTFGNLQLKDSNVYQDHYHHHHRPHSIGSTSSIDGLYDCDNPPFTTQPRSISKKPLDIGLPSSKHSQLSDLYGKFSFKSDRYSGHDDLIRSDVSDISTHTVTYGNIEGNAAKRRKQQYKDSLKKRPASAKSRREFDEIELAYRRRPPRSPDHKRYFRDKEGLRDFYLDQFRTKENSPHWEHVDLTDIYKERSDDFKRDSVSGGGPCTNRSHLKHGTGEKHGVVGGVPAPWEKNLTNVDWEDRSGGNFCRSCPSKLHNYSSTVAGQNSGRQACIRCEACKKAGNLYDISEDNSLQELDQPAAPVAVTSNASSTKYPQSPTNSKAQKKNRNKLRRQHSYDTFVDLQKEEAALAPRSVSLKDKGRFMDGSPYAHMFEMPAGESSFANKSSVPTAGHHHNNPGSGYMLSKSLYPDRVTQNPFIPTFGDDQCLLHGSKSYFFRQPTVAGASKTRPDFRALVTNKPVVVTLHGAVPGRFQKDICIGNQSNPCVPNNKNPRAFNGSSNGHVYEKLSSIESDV

Regarding `Cc1cc(C#CCN2CCC(Cc3ccc(F)cc3)CC2)cc2[nH]c(O)nc12`, the minimal effective dose with Rattus norvegicus [1] was determined as 30 mg/kg. In addition, the MED entry in the test on Rattus norvegicus [2] is “inactive”. In the case of `Oc1nc2ccc(C#CCN3CCC(Cc4ccc(F)cc4)CC3)cc2o1`, the minimal effective dose with Rattus norvegicus [3] stood at 30 mg/kg. For the same compound, the MED result in the test with Rattus norvegicus [4] is “inactive”. For `Oc1nc2c(C(F)(F)F)cc(C#CCN3CCC(Cc4ccc(F)cc4)CC3)cc2[nH]1`, the MED entry with Rattus norvegicus [2] and in the test on Rattus norvegicus [4] was “inactive” throughout. Besides, in test [5], the IC50 result was “Not Active”. With `Oc1nc2ccc(C#CCN3CCC(O)(Cc4ccc(F)cc4)CC3)cc2s1`, the MED entry in the test on Rattus norvegicus [2] and with Rattus norvegicus [4] was “inactive” each time. This compound also registered a concentration for half-maximal inhibition (IC50) in test [6] of 24 nM. As to `COc1cc2[nH]c(O)nc2cc1C#CCN1CCC(Cc2ccc(F)cc2)CC1`, the MED entry in the test with Rattus norvegicus [2] and in the test on Rattus norvegicus [4] was “inactive” each time. As for `CC1CC(Cc2ccc(F)cc2)CCN1CC#Cc1ccc2[nH]c(O)nc2c1` (stereo not drawn), the MED result with Rattus norvegicus [2] and in the test with Rattus norvegicus [4] was “inactive” throughout. For `Oc1nc2c(C#CCN3CCC(Cc4ccc(F)cc4)CC3)cccc2[nH]1`, the MED result in the test with Rattus norvegicus [2] and with Rattus norvegicus [4] was “inactive” in each case.

Regarding `Oc1nc2cc(C#CCN3CCC(=Cc4ccc(F)cc4)CC3)ccc2[nH]1`, the MED result in the test on Rattus norvegicus [2] and in the test on Rattus norvegicus [4] was “inactive” each time. `Fc1ccc(CC2CCN(CC#Cc3ccc4[nH]c(=S)[nH]c4c3)CC2)cc1` came in with an IC50 in test [6] of 19 nM.

Regarding `Oc1nc2cc(C#CCN3CCC(Cc4ccc(F)cc4)CC3)c[nH]c-2n1`, the MED entry in the test on Rattus norvegicus [2] and in the test with Rattus norvegicus [4] was “inactive” each time.

`Cc1cc(C#CCN2CCC(Cc3ccc(F)cc3)CC2)cc2[nH]c(=O)[nH]c12`: in test [6], the concentration for half-maximal inhibition (IC50) turned out to be 20 nM. The same measure, in the same setting: next, `O=c1[nH]c2cccc(C#CCN3CCC(Cc4ccc(F)cc4)CC3)c2[nH]1`: 284 nM.

With `Cc1c(C#CCN2CCC(Cc3ccc(F)cc3)CC2)cc2nc(O)[nH]c2c1C`, the MED entry in the test with Rattus norvegicus [2] and in the test on Rattus norvegicus [4] was “inactive” each time.

For `CC1CC(Cc2ccc(F)cc2)CC(C)N1CC#Cc1ccc2[nH]c(O)nc2c1` (stereo not drawn), the MED entry in the test on Rattus norvegicus [2] and in the test on Rattus norvegicus [4] was “inactive” in each case. For `Oc1nc2cc(C#CCN3CCC(Cc4ccc(F)cc4)CC3)ccc2[nH]1`, the minimal effective dose in the test with Rattus norvegicus [3] was determined as 10 mg/kg; with Rattus norvegicus [4] (po, read-out: MED), 10 mg/kg. Take `CC(C)(C#Cc1ccc2[nH]c(O)nc2c1)N1CCC(Cc2ccc(F)cc2)CC1`: the MED entry with Rattus norvegicus [2] and with Rattus norvegicus [4] was “inactive” each time. Turning to `Oc1nc2cc(C#CCN3CCC(CCc4ccc(F)cc4)CC3)ccc2[nH]1`, the MED result with Rattus norvegicus [2] and in the test with Rattus norvegicus [4] was “inactive” throughout. `Cc1cc2[nH]c(O)nc2cc1C#CCN1CCC(Cc2ccc(F)cc2)CC1`: the MED entry in the test with Rattus norvegicus [2] and in the test on Rattus norvegicus [4] was “inactive” each time.

In test [6], `CC(C)(C#Cc1ccc2[nH]c(=O)[nH]c2c1)N1CCC(Cc2ccc(F)cc2)CC1` showed an IC50 of over 1000 nM. Consider `Fc1ccc(CC2CCN(CC#Cc3ccc4[nH]c(S)nc4c3)CC2)cc1`, for which the MED entry in the test on Rattus norvegicus [2] and in the test on Rattus norvegicus [4] was “inactive” each time. Turning to `O=c1[nH]c2cc(C#CCN3CCC(Cc4ccc(F)cc4)CC3)cnc2[nH]1`, the half-maximal inhibitory concentration (IC50) in test [6] amounted to 2 nM. Take `Cc1cc2[nH]c(=O)[nH]c2cc1C#CCN1CCC(Cc2ccc(F)cc2)CC1`: in test [6], the half-inhibitory concentration (IC50) was determined as 4 nM. With `Oc1nc2cc(C#CCN3CCC(O)(Cc4ccc(F)cc4)CC3)ccc2[nH]1`, the MED result in the test with Rattus norvegicus [2] and in the test with Rattus norvegicus [4] was “inactive” in each case. The IC50 in test [6] came to 21 nM. For `Oc1nc2cc(C#CCN3CCC(Cc4cccc(F)c4)CC3)ccc2[nH]1`, the MED result in the test on Rattus norvegicus [2] and in the test on Rattus norvegicus [4] was “inactive” throughout. For the same compound, the IC50 in test [6] is 14 nM. `CC(C#Cc1ccc2[nH]c(=O)[nH]c2c1)N1CCC(Cc2ccc(F)cc2)CC1` (stereo not drawn) had a 50% inhibitory concentration (IC50) in test [6] of 100 nM.

With `O=c1[nH]c2ccc(C#CCN3CCC(=Cc4ccc(F)cc4)CC3)cc2[nH]1`, in test [6], the IC50 was 142 nM. With `CC(C#Cc1ccc2[nH]c(O)nc2c1)N1CCC(Cc2ccc(F)cc2)CC1` (stereo not drawn), the MED result in the test with Rattus norvegicus [2] and with Rattus norvegicus [4] was “inactive” each time. `O=C1Cc2cc(C#CCN3CCC(Cc4ccc(F)cc4)CC3)ccc2N1`: the MED entry with Rattus norvegicus [2] and in the test on Rattus norvegicus [4] was “inactive” each time. Also, in test [6], the IC50 is 56 nM. `CC1CC(Cc2ccc(F)cc2)CC(C)N1CC#Cc1ccc2[nH]c(=O)[nH]c2c1` (stereo not drawn) showed an IC50 in test [6] of 157 nM. Compound `CC1CC(Cc2ccc(F)cc2)CCN1CC#Cc1ccc2[nH]c(=O)[nH]c2c1` (stereo not drawn) displayed an IC50 in test [6] of 104 nM. `COc1cc2[nH]c(=O)[nH]c2cc1C#CCN1CCC(Cc2ccc(F)cc2)CC1` registered an IC50 in test [6] of 9 nM. Regarding `Oc1nc2ccc(C#CCN3CCC(O)(Cc4ccc(F)cc4)CC3)cc2o1`, the minimal effective dose with Rattus norvegicus [3] amounted to 30 mg/kg. The MED entry with Rattus norvegicus [4] was “inactive”.

As usually defined, the IC50 is the concentration at which inhibition is half-maximal. A high value points to lower potency.
